Values quoted from earlier work, collected in patent US20240082217A1, “PROCESS FOR OBTAINING A PURIFIED PS[…] SOLUTION” (PSILO SCIENTIFIC LTD, priority 2020, published 2024).

Details: stated as a property of the alkaloid, freebase form; no measurement described

CN(C)CCc1c[nH]c2cccc(O)c12 [psilocin]
isoelectric point (pH): 8.47±0.25 pH
